Experimental data reported in PubChem BioAssay (NCI).
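Briefly, cells in 96-well plates were exposed to five compound concentrations for 48 h, and endpoints were estimated by linear interpolation. The concentration for 50% growth inhibition is given as GI50. TGI: total growth inhibition.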

Experiments:
Experiment in all cases: NCI tumour cell line growth inhibition, 48 h
[1] = tested on: HS 578T breast
[2] = tested on: SW-620 colon
[3] = tested on: U251 CNS
[4] = tested on: UACC-257 melanoma
[5] = tested on: HT29 colon
[6] = tested on: KM12 colon
[7] = tested on: SK-OV-3 ovarian
[8] = tested on: UO-31 renal
[9] = tested on: NCI-H23 lung
[10] = tested on: HL-60(TB) leukemia
[11] = tested on: HCC-2998 colon
[12] = tested on: 786-0 renal
[13] = tested on: SK-MEL-28 melanoma
[14] = tested on: MDA-MB-435
[15] = tested on: OVCAR-5 ovarian
[16] = tested on: OVCAR-4 ovarian
[17] = tested on: DU-145 prostate
[18] = tested on: SF-268 CNS
[19] = tested on: A549 NSCLC
[20] = tested on: ACHN renal
[21] = tested on: NCI/ADR-RES ovarian
[22] = tested on: EKVX NSCLC
[23] = tested on: HCT-15 colon
[24] = tested on: SN12C renal
[25] = tested on: SNB-19 CNS
[26] = tested on: BT-549 breast
[27] = tested on: SF-539 CNS
[28] = tested on: COLO 205 colon
[29] = tested on: SF-295 CNS
[30] = tested on: NCI-H226 lung
[31] = tested on: SK-MEL-5 melanoma
[32] = tested on: CCRF-CEM leukemia
[33] = tested on: NCI-H460 lung
[34] = tested on: T-47D breast
[35] = tested on: HOP-62 NSCLC
[36] = tested on: HOP-92 NSCLC
[37] = tested on: MCF7 breast
[38] = tested on: MDA-MB-231 breast
[39] = tested on: OVCAR-8 ovarian
[40] = tested on: MOLT-4 leukemia
[41] = tested on: HCT-116 colon
[42] = tested on: PC-3 prostate
[43] = tested on: RPMI-8226 leukemia
[44] = tested on: IGROV1 ovarian
[45] = tested on: LOX IMVI melanoma
[46] = tested on: SR leukemia
[47] = tested on: UACC-62 melanoma
[48] = tested on: TK-10 renal
[49] = tested on: RXF 393 renal
[50] = tested on: NCI-H522 lung
[51] = tested on: A498 renal
[52] = tested on: K-562 leukemia
[53] = tested on: M14 melanoma
[54] = tested on: MALME-3M melanoma
[55] = tested on: SNB-75 CNS
[56] = tested on: CAKI-1 renal
[57] = tested on: SK-MEL-2 melanoma

CCN(CC)CCN1C(=O)c2c(c3c4cc(Br)ccc4[nH]c3c3ccc4ccccc4c23)C1=O showed a GI50 [1] of 1.94 µM, a TGI [1] of 5.02 µM and a GI50 [2] of 0.553 µM. It also gave a TGI [2] of 2.16 µM, a GI50 [3] of 1.02 µM and a TGI [3] of 2.21 µM. The GI50 [4] was 1.64 µM, the TGI [4] was 3.01 µM and the GI50 [5] was 1.35 µM. The TGI [5] was 2.8 µM, the GI50 [6] was 1.71 µM and the TGI [6] was 3.5 µM. For the same compound, the GI50 [7] was 1.5 µM, the TGI [7] was 2.9 µM and the GI50 [8] was 1.32 µM. It also gave a TGI [8] of 2.62 µM, a GI50 [9] of 1.5 µM and a TGI [9] of 3.32 µM. The GI50 [10] was 1.58 µM, the TGI [10] was 3.98 µM and the GI50 [11] was 1.66 µM. It also gave a TGI [11] of 3.43 µM, a GI50 [12] of 1.71 µM and a TGI [12] of 3.11 µM. The GI50 [13] was 1.73 µM, the TGI [13] was 3.19 µM and the GI50 [14] was 1.63 µM. For the same compound, the TGI [14] was 3.08 µM, the GI50 [15] was 1.76 µM and the TGI [15] was 3.23 µM. The GI50 [16] was 1.68 µM, the TGI [16] was 3.22 µM and the GI50 [17] was 1.22 µM. The TGI [17] was 2.56 µM, the GI50 [18] was 1.52 µM and the TGI [18] was 3.53 µM. The GI50 [19] was 1.43 µM, the TGI [19] was 2.79 µM and the GI50 [20] was 1.14 µM. It also gave a TGI [20] of 2.36 µM, a GI50 [21] of 1.43 µM and a TGI [21] of 4.19 µM. The GI50 [22] was 1.38 µM, the TGI [22] was 2.92 µM and the GI50 [23] was 1.4 µM. For the same compound, the TGI [23] was 3.08 µM, the GI50 [24] was 1.58 µM and the TGI [24] was 3.14 µM. The GI50 [25] was 1.43 µM, the TGI [25] was 2.84 µM and the GI50 [26] was 2.22 µM. For the same compound, the TGI [26] was 4.07 µM, the GI50 [27] was 1.56 µM and the TGI [27] was 3 µM. It also gave a GI50 [28] of 1.43 µM, a TGI [28] of 3.13 µM and a GI50 [29] of 1.61 µM. The TGI [29] was 3.09 µM, the GI50 [30] was 5.64 µM and the TGI [30] was 33.7 µM. It also gave a GI50 [31] of 1.75 µM, a TGI [31] of 3.18 µM and a GI50 [32] of 0.186 µM. The TGI [32] was 1.75 µM, the GI50 [33] was 0.476 µM and the TGI [33] was 1.85 µM. For the same compound, the GI50 [34] was 0.7 µM, the TGI [34] was 2.56 µM and the GI50 [35] was 0.922 µM. The TGI [35] was 2.25 µM, the GI50 [36] was 1.32 µM and the TGI [36] was 2.71 µM. It also gave a GI50 [37] of 0.0439 µM, a TGI [37] of 1.64 µM and a GI50 [38] of 1.41 µM. The TGI [38] was 3 µM, the GI50 [39] was 1.27 µM and the TGI [39] was 2.66 µM. It also gave a GI50 [40] of 0.215 µM, a TGI [40] of 1.92 µM and a GI50 [41] of 1.25 µM. The TGI [41] was 2.5 µM, the GI50 [42] was 1.31 µM and the TGI [42] was 2.65 µM. It also gave a GI50 [43] of 1.21 µM, a TGI [43] of 3.23 µM and a GI50 [44] of 1.27 µM. It also gave a TGI [44] of 2.82 µM, a GI50 [45] of 1.25 µM and a TGI [45] of 3.04 µM. The GI50 [46] was 0.102 µM, the TGI [46] was 0.52 µM and the GI50 [47] was 1.64 µM. For the same compound, the TGI [47] was 3.5 µM, the GI50 [48] was 2.11 µM and the TGI [48] was 3.56 µM. It also gave a GI50 [49] of 1.58 µM, a TGI [49] of 3 µM and a GI50 [50] of 1.29 µM. For the same compound, the TGI [50] was 2.67 µM, the GI50 [51] was 1.64 µM and the TGI [51] was 3.29 µM. The GI50 [52] was 0.273 µM, the TGI [52] was 0.905 µM and the GI50 [53] was 1.57 µM. It also gave a TGI [53] of 2.96 µM, a GI50 [54] of 1.56 µM and a TGI [54] of 3.06 µM. For the same compound, the GI50 [55] was 1.45 µM, the TGI [55] was 2.84 µM and the GI50 [56] was 1.25 µM. For the same compound, the TGI [56] was 2.63 µM.

Work on COc1cccc(N2CCN(C3=C(Cl)C(=O)c4ncccc4C3=O)CC2)c1 yielded a GI50 [1] of 10 µM, a TGI [1] of 51.5 µM and a GI50 [2] of 1.64 µM. It also gave a TGI [2] of 3.32 µM, a GI50 [3] of 5.46 µM and a TGI [3] of 19.5 µM. For the same compound, the GI50 [4] was 2.12 µM, the TGI [4] was 5.23 µM and the GI50 [5] was 12.2 µM. For the same compound, the TGI [5] was 28.6 µM, the GI50 [6] was 20.3 µM and the TGI [6] was 41.7 µM. For the same compound, the GI50 [7] was 15.4 µM, the TGI [7] was 46.2 µM and the GI50 [57] was 6.25 µM. It also gave a TGI [57] of 19.3 µM, a GI50 [8] of 1.64 µM and a TGI [8] of 3.4 µM. For the same compound, the GI50 [10] was 1.75 µM, the TGI [10] was 4.47 µM and the GI50 [11] was 12.1 µM. It also gave a TGI [11] of 25.5 µM, a GI50 [12] of 5.02 µM and a TGI [12] of 16.3 µM. The GI50 [13] was 3.3 µM, the TGI [13] was 9.58 µM and the GI50 [14] was 1.79 µM. The TGI [14] was 3.34 µM, the GI50 [15] was 15.4 µM and the TGI [15] was 30.3 µM. It also gave a GI50 [16] of 1.73 µM, a TGI [16] of 3.26 µM and a GI50 [17] of 11.1 µM. The TGI [17] was 23.1 µM, the GI50 [18] was 13.1 µM and the TGI [18] was 29.6 µM. The GI50 [19] was 15.5 µM, the TGI [19] was 33 µM and the GI50 [20] was 1.76 µM. The TGI [20] was 3.19 µM, the GI50 [21] was 3.36 µM and the TGI [21] was 15.5 µM. For the same compound, the GI50 [22] was 2.05 µM, the TGI [22] was 4.42 µM and the GI50 [23] was 2.05 µM. The TGI [23] was 5.6 µM, the GI50 [24] was 5.19 µM and the TGI [24] was 20.2 µM. The GI50 [25] was 16.2 µM, the TGI [25] was 32.9 µM and the GI50 [26] was 6.75 µM. The TGI [26] was 18.3 µM, the GI50 [27] was 11.4 µM and the TGI [27] was 23.6 µM. It also gave a GI50 [28] of 1.87 µM, a TGI [28] of 4.01 µM and a GI50 [29] of 12.5 µM. For the same compound, the TGI [29] was 26.2 µM, the GI50 [30] was 14 µM and the TGI [30] was 31.9 µM. For the same compound, the GI50 [31] was 11.5 µM, the TGI [31] was 23.8 µM and the GI50 [33] was 7.26 µM. The TGI [33] was 26.7 µM, the GI50 [35] was 18.5 µM and the TGI [35] was 33.2 µM. It also gave a GI50 [36] of 1.63 µM, a TGI [36] of 3.07 µM and a GI50 [37] of 1.98 µM. The TGI [37] was 5.86 µM, the GI50 [38] was 1.68 µM and the TGI [38] was 3.2 µM. For the same compound, the GI50 [39] was 2 µM, the TGI [39] was 5.01 µM and the GI50 [41] was 1.73 µM. For the same compound, the TGI [41] was 3.18 µM, the GI50 [42] was 8.55 µM and the TGI [42] was 22.3 µM. The GI50 [43] was 2.27 µM, the TGI [43] was 5.92 µM and the GI50 [44] was 2.93 µM. For the same compound, the TGI [44] was 9.52 µM, the GI50 [45] was 1.62 µM and the TGI [45] was 3.12 µM. It also gave a GI50 [46] of 1.8 µM, a TGI [46] of 5.38 µM and a GI50 [47] of 3.48 µM. For the same compound, the TGI [47] was 12.3 µM, the GI50 [48] was 4.18 µM and the TGI [48] was 13.2 µM. It also gave a GI50 [49] of 1.77 µM, a TGI [49] of 3.25 µM and a GI50 [50] of 1.73 µM. It also gave a TGI [50] of 3.39 µM, a GI50 [51] of 13.5 µM and a TGI [51] of 26.4 µM. It also gave a GI50 [52] of 2.3 µM, a TGI [52] of 6.28 µM and a GI50 [53] of 3.27 µM. The TGI [53] was 13 µM, the GI50 [54] was 1.84 µM and the TGI [54] was 4.06 µM. The GI50 [55] was 11.8 µM, the TGI [55] was 24.7 µM and the GI50 [56] was 2.64 µM. It also gave a TGI [56] of 8.15 µM.
